Results from patent publication US20240117334A1, “FACTOR B PROTEASES” (Vertex Pharmaceuticals Incorporated, priority 2021, published 2024).

Experiments:
Assay type in all cases: biochemical
[1] = system: 20% Normal Human Serum, rabbit red blood cells; assay: Standard Alternative Pathway (AP) RBC hemolysis assay; design: unit of the concentration uncertain
Protocol: (§1) Percent lysis was calculated using the following formula: [(OD415 of sample−OD415 EDTA negative control)/(OD415 saline positive control-OD415 EDTA)*100 ] (Table 17A and Table 17B). IC50s were calculated by nonlinear regression (Prism 9, log(inhibitor,bv) vs. response-4 parameter variable slope model) (Table 18A and Table 18B).

[2] = system: human Factor B depleted sera with Factor B, rabbit red blood cells; assay: Enhanced AP RBC hemolysis assay (Factor B depleted sera with Factor B spiked back); design: unit of the concentration uncertain
Protocol: as §1

[3] = system: Human Factor B digests in human Factor B Depleted Serum, rabbit red blood cells; assay: Hemolysis assay with Factor B digests (KLK5 and chymase-based protease); settings: 4 μM Factor B digested 1 hour at 37° C., 15% serum
Protocol: FIG. 7A depicts a graph showing hemolysis inhibition by KLK5 and compared with a chymase-based engineered protease C22S/F173Y/D175N/A226R. All references in this Example to engineered proteases are depicted in chymotrypsin numbering. The chymotrypsin numbering key for the modified protease domains of engineered proteases are found in Tables 2, 4, and 6 for uPA, MTSP-1, and chymase, respectively. Briefly, a digestion reaction was prepared with 4.0 μM of Human Factor B (Complement Technologies) in 20 μL buffer (50 mM Tris pH 7.4/50 mM NaCl/0.01% Tween 20). Different concentration of the KLK5 protease or the chymase-based engineered protease C22S/F173Y/D175N/A226R (400, 200, 100, 50, 25, 12.5, 6.25, 3.125, 1.56, 0.78, and 0.39 with a control at 0.0 nM) were added to 4 μM of Factor B and incubated for 1 hour at 37° C. After digestion, 6 μL of the reaction was evaluated in a hemolysis assay.
The Factor B digestion reactions were diluted in 20 μL of GVB (Complement Technologies), 10 mM MgCl2 and 8 mM EGTA (GVB/Mg/EGTA). 45 μL of human Factor B Depleted Serum (Complement Technologies) was then added to 5 μL of human Factor B digests to obtain a final volume of 90% serum. In parallel, 50 μL of rabbit red blood cells (Colorado Serum Co.) were diluted into 950 μL of GVB/Mg/EGTA and mixed gently. […] The plate absorbance was read at 415 nm with a spectrophotometer and the EC50 was calculated.

Human Factor B [4] = target: T1, Human Factor B (Homo sapiens, UniProt P00751); assay: Factor B cleavage by KLK5, Factor B ELISA; settings: 4 μM Factor B, 1 hour at 37° C., two stocks
Protocol: FIG. 7B depicts a graph showing Factor B cleavage with KLK5 and a chymase-based engineered protease C22S/F173Y/D175N/A226R. Briefly, A digestion reaction is prepared with 4.0 uM of Human Factor B (Complement Technologies) in 20 μL buffer (50 mM Tris pH 7.4/50 mM NaCl/0.01% Tween 20). Different concentrations of KLK5 (400, 200, 100, 50, 25, 12.5, 6.25, 3.125, 1.56, 0.78, and 0.39 with a control at 0.0 nM) are added to 4 μM of factor B and incubated for 1 hour at 37° C. After digestion, 15 μL of the reaction is transferred to a 96 well plate with 1.5 μL of 0.2N HCL. After quenching, the reactions are prepared factor B ELISA.
A Factor B standard curve is made with 800, 533.3, 355.5, 237.0, 158.0, 105.3, 70.2, 46.8, 31.2, 20.8, 0.0 pM in 1% BSA-PBST. A 384 well plate was coated with the monoclonal antibody against human Factor Ba (#A225, Quidel) at 2 μg/mL in carbonate buffer (25 μL/well). […]
The biotinylated monoclonal antibody against human Factor Bb (Quidel) was then added at 0.125 μg/ml to detect the bound Factor B. Streptavidin-HRP was then diluted at 1:200 in blocking buffer (25 μL/well) and the plate was agitated for 30 minutes at room temperature. The plate was developed with ELISABright, (50 μL/well) for 1 minute at room temperature and read in the EnVision plate reader. […]

Human Factor B [5] = target: T1, Human Factor B; assay: Mass spectrometry identification of Factor B cleavage sites
Protocol: FIG. 9 depicts mass spectrometry (MS) data identifying the cleavage site at 234 Arg within the QQKR/KIV (SEQ ID NO: 9) cleavage site of Factor B by KLK5, and identifying the cleavage site at ^221Asp within the EGVDAE (SEQ ID NO: 13) cleavage site of Factor B by the chymase-based engineered protease C22S/A226R. Briefly, human Factor B (Comptech) was incubated at 2 μM with different concentration of Kallikrein 5 (KLK5, R&D Systems) or the chymase-based engineered protease C22S/A226R at 10 nM or 100 pM for 10 minutes to 1 hour at 37° C. in 20 mM Tris pH 8 buffer with 16-0 or 18-0 water. The reaction was quenched with 20 μM of inhibitor FFR-CMK for 30 minutes at room temperature. Half of the sample was further treated with Rapidgest/chymotrypsin and adjusted to pH 3 by the addition of […] 1% TFA. TCEP (100 mM final concentration) was then added to reduce disulfides for 30 minutes at 37° C. […] of each sample was bound to a Ziptip (Millipore) and eluted with […] 80% ACN-0.1% TFA. After drying in a Speedvac, the samples were re-dissolved in […] of 30% ACN-0.05% TFA. 0.35 mL of the sample was loaded with 0.45 mL of CHCA matrix (10 mg/mL) onto an OptiPlate, and analyzed by MALDI-MS (ABI 4700) in both linear (m/z 2-22k) and reflector (m/z 1500-5400) mode. The tandem MS was carried out on peptides of interest when possible. Two large peptide fragments were detected at […] and 59 kDa. In summary, 100 pM KLK5 cleaves at 1 of 38 Arg in a 10 minute reaction and in 4 out of 38 Arg in a 60 minute reaction (Arg175, Arg193, Arg730 and Arg739). At 10 nM, cleavage was detected in […] in 10 and 60 minute reactions (Arg50, Arg74, Arg94, Arg175, Arg182, Arg193, Arg202, Arg203, Arg259, Arg381, Arg415, Arg658, Arg679, Arg708, Arg710, Arg730, Arg739). The earliest cleavage event was at Arg 730.
The reconstructed ion chromatograms shown in FIG. 9 are of reaction products from Kallikrein-5 (“KLK”), the chymase-based engineered protease C22S/A226R (“chymase-based”), and plasma derived-Factor B (“Fb control”). […] In contrast, KLK5 cleaves Factor B at ^234 Arg (peak at 4.69 minutes, MW 61437).

[6] = concentration 0.33 (unit uncertain)
[7] = concentration 1 (unit uncertain)
[8] = concentration 3 (unit uncertain)
[9] = concentration 10 (unit uncertain)

T1 sequence (P00751 26-764): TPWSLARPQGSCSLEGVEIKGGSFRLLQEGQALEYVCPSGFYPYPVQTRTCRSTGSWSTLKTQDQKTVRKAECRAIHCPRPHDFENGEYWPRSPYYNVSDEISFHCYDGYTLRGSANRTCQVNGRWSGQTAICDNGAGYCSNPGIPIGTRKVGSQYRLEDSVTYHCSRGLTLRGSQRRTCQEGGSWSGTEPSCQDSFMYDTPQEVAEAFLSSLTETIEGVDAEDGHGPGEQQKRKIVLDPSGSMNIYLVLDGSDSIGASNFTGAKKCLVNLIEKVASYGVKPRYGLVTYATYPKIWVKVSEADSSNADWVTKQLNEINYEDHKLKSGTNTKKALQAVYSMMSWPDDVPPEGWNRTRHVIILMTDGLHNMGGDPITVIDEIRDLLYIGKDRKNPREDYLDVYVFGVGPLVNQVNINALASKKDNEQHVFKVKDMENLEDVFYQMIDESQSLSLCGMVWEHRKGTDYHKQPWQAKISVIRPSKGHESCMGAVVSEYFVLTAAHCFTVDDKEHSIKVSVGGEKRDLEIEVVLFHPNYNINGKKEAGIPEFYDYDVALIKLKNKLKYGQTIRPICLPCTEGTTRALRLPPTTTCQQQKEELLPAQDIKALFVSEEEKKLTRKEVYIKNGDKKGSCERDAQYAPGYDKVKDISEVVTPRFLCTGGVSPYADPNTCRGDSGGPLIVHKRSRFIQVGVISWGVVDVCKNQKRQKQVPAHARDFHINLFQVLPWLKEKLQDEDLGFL

CCO[C@H]1CCN(Cc2c(OC)cc(C)c3[nH]ccc23)[C@H](c2ccc(C(=O)O)cc2)C1 [LNP023]
% Hemolysis [1, 6]: 0% | % Hemolysis [1, 7]: 1.16% | % Hemolysis [1, 8]: 0% | % Hemolysis [1, 9]: 0% | % Hemolysis [2, 6]: 102.50% | % Hemolysis [2, 7]: 108.48% | % Hemolysis [2, 8]: 33.94% | % Hemolysis [2, 9]: 0%

KLK5: Kallikrein-related peptidase 5 protease (R&D Systems)
inhibition of hemolysis [3]: effective in inhibition of hemolysis | cleavage of Factor B (ELISA) (Human Factor B [4]): effective in cleavage Factor B | earliest cleavage event (Human Factor B [5]): Arg 730 | remaining intact Factor B (reconstructed ion chromatogram) (Human Factor B [5]): No remaining intact Factor B | number of Arg of Factor B cleaved (Human Factor B [5]; 100 pM, 10 minute reaction): 1 of 38 | number of Arg of Factor B cleaved (Human Factor B [5]; 100 pM, 60 minute reaction): 4 out of 38 | number of Arg of Factor B cleaved (Human Factor B [5]; 10 nM, 10 and 60 minute reactions): 18 of 38
